In patent EP4722228A1, “NEW COMPOUND TARGETING MUSK AND USE THEREOF” (The University of Tokyo, priority 2023, dated 2024):
Bridge positions count the residues as written; N and C are the ends. Square brackets hold non-standard residues; d marks the D form. Peptide text beside a SMILES is read from it. I, II: the chains in the order shown. * marks the point of attachment. Palmitoyl = CCCCCCCCCCCCCCCC(=O)*; PEG3 = NCCOCCOCCOCCC(=O)O; Dap = NC[C@H](N)C(=O)O

Biological target: T1, human MuSK (Homo sapiens, UniProt O15146)
T1 construct: fused downstream of the extracellular portion (amino acids 1-493) of human MuSK cDNA clone; made in house; host or cells: Expi293 cells; unpurified culture supernatant used
T1 sequence (O15146 24-493) 1: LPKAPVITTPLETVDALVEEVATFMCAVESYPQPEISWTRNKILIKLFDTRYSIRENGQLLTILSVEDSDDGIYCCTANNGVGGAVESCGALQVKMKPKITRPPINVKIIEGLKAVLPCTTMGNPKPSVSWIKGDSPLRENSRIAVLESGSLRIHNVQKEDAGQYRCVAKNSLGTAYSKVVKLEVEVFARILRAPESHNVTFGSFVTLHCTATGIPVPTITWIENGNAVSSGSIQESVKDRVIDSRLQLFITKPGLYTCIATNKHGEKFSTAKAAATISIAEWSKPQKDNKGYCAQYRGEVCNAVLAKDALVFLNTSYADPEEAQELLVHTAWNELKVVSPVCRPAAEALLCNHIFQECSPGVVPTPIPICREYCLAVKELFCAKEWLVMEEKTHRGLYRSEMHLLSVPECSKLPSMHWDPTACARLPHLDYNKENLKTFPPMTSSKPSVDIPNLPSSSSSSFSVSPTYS
T1 sequence (O15146 24-493) 2: T1 sequence (O15146 24-493) 1
Assay: MuSK dimerization activity (NanoBiT assay)
Assay type: biochemical
Protocol: Expi293 cells were purchased from Thermo Fisher Scientific Inc. and used. For subculture, DMEM (high glucose, GlutaMAX supplement, pyruvate; GIBCO) supplemented with 10% fetal bovine serum (FBS; GIBCO) was used. For passage, after the culture medium was removed by suction, adherent cells were washed with phosphate buffered saline (PBS(-)), and HBSS (GIBCO) containing no Mg^2+ and Ca^2+ and containing 0.25% trypsin and 1 mM ethylenediaminetetraacetic acid was added, and the mixture was reacted in a CO2 incubator (37°C, 5% CO2) for 5 minutes. The detached cells were collected and then centrifuged at 1000 rpm at 4°C for 5 minutes (Sorvall X4R Pro, Thermo Fisher Scientific Inc.). After the supernatant was removed by suction, the cells were suspended in fresh culture medium and expanded in a new culture vessel.
In the steady state, their affinity is estimated to be about 190 µM, and the amount of luminescence is very small even in the presence of substrate. […] A technique for evaluating interactions between two arbitrary proteins by utilizing this property is the NanoBiT assay. […]
The effect of the U-bodies and their complexes on clustering of acetylcholine receptors was evaluated. […]

MuSK dimerization (compound concentration exceeded 40 nM): conversely tended to decrease | luminescence (MuSK dimerization) (concentration range from the pM order to 40 nM): increased in a dose-dependent manner
SMILES: CCCCCCCCCCCCCCCC(=O)NCCCC[C@H](NC(=O)[C@H](CNC(=O)CCOCCOCCOCCNC(=O)CNC(=O)[C@@H]1CSCC(=O)N[C@H](Cc2ccc(O)cc2)C(=O)N2CCC[C@H]2C(=O)N[C@@H](CO)C(=O)N[C@@H](Cc2ccc(O)cc2)C(=O)N[C@@H](Cc2c[nH]cn2)C(=O)N[C@@H]([C@@H](C)O)C(=O)N[C@@H](CC(N)=O)C(=O)N[C@@H](C(C)C)C(=O)N[C@@H](C(C)C)C(=O)N[C@@H](C)C(=O)N[C@@H](CO)C(=O)N[C@@H](CC(C)C)C(=O)N[C@@H](CCCCN)C(=O)N[C@@H](CCCNC(=N)N)C(=O)N1)NC(=O)CCOCCOCCOCCNC(=O)CNC(=O)[C@@H]1CSCC(=O)N[C@H](Cc2ccc(O)cc2)C(=O)N2CCC[C@H]2C(=O)N[C@@H](CO)C(=O)N[C@@H](Cc2ccc(O)cc2)C(=O)N[C@@H](Cc2c[nH]cn2)C(=O)N[C@@H]([C@@H](C)O)C(=O)N[C@@H](CC(N)=O)C(=O)N[C@@H](C(C)C)C(=O)N[C@@H](C(C)C)C(=O)N[C@@H](C)C(=O)N[C@@H](CO)C(=O)N[C@@H](CC(C)C)C(=O)N[C@@H](CCCCN)C(=O)N[C@@H](CCCNC(=N)N)C(=O)N1)C(N)=O [MuSK7-pal] (I: {CH2CO}-[dY]PSYHTNVVASLKRCG[PEG3][Dap]K(Palmitoyl)-NH2 / II: {CH2CO}-[dY]PSYHTNVVASLKRCG[PEG3]; amide I:18-II:C; thioether I:N-I:15, II:N-II:15)
